The numbers were not newly measured in patent publication US6462088B1, “Disinfecting preparation containing chlorine in alcohol” (priority 1998, dated 2002), which cites them from elsewhere.

The conditions of this data set: 25° C., aqueous solution; for E0 standard oxidation potential, Ref. b): Ullmann's Encyclopedia.

As to Hypochlorite ion, the “E0 standard oxidation potential, Ref. b)” value was 0.90 V. On to `OCl` [Hypochlorous acid], for which the “E0 standard oxidation potential, Ref. b)” value is 1.50 V. Besides, the “E0 standard oxidation potential, Ref. a)” value (Rice and Gomez-Taylor) was 1.49 V.
